Several values for one entry are separate records, joined by “and”; a condition that tells them apart may be missing. Equal entries are not always repeated.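 Protocol summary: plate cells (96-well), add compound at 5 concentrations, incubate 48 h, interpolate endpoints linearly. GI50 = concentration required for 50% inhibition of growth. At the TGI there is no net growth.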 Where a SMILES comes first, the peptide text is derived from it. [ ]: non-standard residue; d: D form. The star is where a group is joined. ξ: configuration not given here. ξPhe(4-NO2) = NC(Cc1ccc([N+](=O)[O-])cc1)C(=O)O; Boc = CC(C)(C)OC(=O)*
How the values were obtained:
Assay in all cases: inhibition of tumour cell growth, NCI panel, 48 h
786-0 renal = test system: 786-0 renal
A498 renal = test system: A498 renal
CAKI-1 renal = test system: CAKI-1 renal
HCT-15 colon = test system: HCT-15 colon
HOP-92 NSCLC = test system: HOP-92 NSCLC
MDA-MB-435 = test system: MDA-MB-435
NCI-H522 lung = test system: NCI-H522 lung
OVCAR-3 ovarian = test system: OVCAR-3 ovarian
SK-MEL-28 melanoma = test system: SK-MEL-28 melanoma

Question: What does the source list for `CCNC(=O)CNC(=O)C(Cc1ccc([N+](=O)[O-])cc1)NC(=O)OC(C)(C)C` (stereo unspecified) (Boc-[ξPhe(4-NO2)]-Gly-NHEt)?
Answer: TGI (786-0 renal): > 100 µM; TGI (A498 renal): > 100 µM; TGI (CAKI-1 renal): > 100 µM; TGI (HCT-15 colon): > 100 µM; TGI (HOP-92 NSCLC): > 100 µM; TGI (MDA-MB-435): > 100 µM; TGI (NCI-H522 lung): > 100 µM; TGI (OVCAR-3 ovarian): > 100 µM; TGI (SK-MEL-28 melanoma): > 100 µM

Question: With `C=C(C)C1CC2=C(O1)C(=O)c1cccc(O)c1C2=O` (stereo unspecified) as the molecule, how does the TGI (786-0 renal) read?
Answer: The TGI was greater than 100 µM.

Question: What about the TGI (A498 renal) of the same molecule?
Answer: The TGI was 10.2 µM.

Question: What about the TGI (CAKI-1 renal) of the same molecule?
Answer: The TGI was 2.08 µM.

Question: What about the TGI (HCT-15 colon) of the same molecule?
Answer: The TGI was 4.36 µM.

Question: And the TGI (HOP-92 NSCLC)?
Answer: Its TGI is 11.5 µM.

Question: And the TGI (MDA-MB-435)?
Answer: The TGI was 0.271 µM.

Question: What about the TGI (NCI-H522 lung) of the same molecule?
Answer: Its TGI is 1.73 µM.

Question: And the TGI (OVCAR-3 ovarian)?
Answer: Its TGI is 0.924 µM.

Question: And the TGI (SK-MEL-28 melanoma)?
Answer: The TGI was 3.33 µM.

Question: What does the source list for `COC(=O)C1SC[C@H]2C(=O)N(c3ccccc3)C(=O)N12` (stereo partly specified)?
Answer: TGI (786-0 renal): > 100 µM; TGI (A498 renal): > 100 µM; TGI (CAKI-1 renal): > 100 µM; TGI (HCT-15 colon): > 100 µM; TGI (HOP-92 NSCLC): > 100 µM; TGI (MDA-MB-435): > 100 µM; TGI (NCI-H522 lung): > 100 µM; TGI (OVCAR-3 ovarian): > 100 µM; TGI (SK-MEL-28 melanoma): > 100 µM

Question: What does the source list for `C#CCOC(=O)[C@@H](C)c1ccc2cc(OC)ccc2c1`?
Answer: TGI (786-0 renal): > 100 µM; TGI (A498 renal): > 100 µM; TGI (CAKI-1 renal): > 100 µM; TGI (HCT-15 colon): > 100 µM; TGI (HOP-92 NSCLC): > 100 µM; TGI (MDA-MB-435): > 100 µM; TGI (NCI-H522 lung): > 100 µM

Question: What does the source list for `N#Cc1c2ccc([N+](=O)[O-])cc2c(=O)n2c1sc1ccccc12`?
Answer: TGI (786-0 renal): > 100 µM; TGI (A498 renal): 56.4 µM; TGI (CAKI-1 renal): > 100 µM; TGI (HCT-15 colon): > 100 µM; TGI (HOP-92 NSCLC): 41.3 µM; TGI (MDA-MB-435): > 100 µM; TGI (SK-MEL-28 melanoma): > 100 µM

Question: What does the source list for `O=c1oc2ccccc2n1CCCn1c(=O)oc2ccccc21`?
Answer: TGI (786-0 renal): > 100 µM; TGI (A498 renal): > 100 µM; TGI (CAKI-1 renal): > 100 µM; TGI (HCT-15 colon): > 100 µM; TGI (MDA-MB-435): > 100 µM; TGI (OVCAR-3 ovarian): > 100 µM; TGI (SK-MEL-28 melanoma): > 100 µM

Question: With `O=C(N[C@@H](Cc1ccccc1)B(O)O)[C@H](Cc1cccc2ccccc12)NC(=O)N1CCOCC1` as the molecule, how does the TGI (786-0 renal) read?
Answer: Its TGI is 0.271 µM and 0.12 µM.

Question: And the TGI (A498 renal)?
Answer: Its TGI is 0.212 µM.

Question: And the GI50 (CAKI-1 renal)?
Answer: The GI50 was 22.8 nM.

Question: What about the TGI (CAKI-1 renal) of the same molecule?
Answer: The TGI was 0.048 µM and 0.18 µM.

Question: And the TGI (HCT-15 colon)?
Answer: Its TGI is 0.61 µM and 0.405 µM.

Question: And the TGI (HOP-92 NSCLC)?
Answer: The TGI was 0.00744 µM.

Question: And the TGI (MDA-MB-435)?
Answer: The TGI was 0.00103 µM.

Question: What about the TGI (OVCAR-3 ovarian) of the same molecule?
Answer: The TGI was 0.00255 µM and 0.0196 µM.

Question: And the TGI (SK-MEL-28 melanoma)?
Answer: Its TGI is 0.00367 µM.

Question: `Cc1ccc(NC(=S)N=Nc2c(O)[nH]c3ccccc23)cc1` was tested. Which TGI (786-0 renal) did it give?
Answer: Its TGI is greater than 100 µM.

Question: And the TGI (A498 renal)?
Answer: Its TGI is greater than 100 µM.

Question: What about the TGI (CAKI-1 renal) of the same molecule?
Answer: The TGI was greater than 100 µM.

Question: And the TGI (HCT-15 colon)?
Answer: The TGI was greater than 100 µM.

Question: What about the TGI (HOP-92 NSCLC) of the same molecule?
Answer: The TGI was greater than 100 µM.

Question: What about the TGI (MDA-MB-435) of the same molecule?
Answer: Its TGI is greater than 100 µM.

Question: And the TGI (NCI-H522 lung)?
Answer: The TGI was greater than 100 µM.

Question: And the TGI (OVCAR-3 ovarian)?
Answer: The TGI was greater than 100 µM.

Question: What about the TGI (SK-MEL-28 melanoma) of the same molecule?
Answer: Its TGI is greater than 100 µM.

Question: What does the source list for `CC(=O)OCCCCn1cnc2c(Cl)nc(Nc3ccccc3)nc21`?
Answer: TGI (786-0 renal): > 100 µM; TGI (A498 renal): > 100 µM; TGI (CAKI-1 renal): 62 µM; TGI (HCT-15 colon): > 100 µM; TGI (MDA-MB-435): > 100 µM; TGI (NCI-H522 lung): 87.4 µM; TGI (OVCAR-3 ovarian): > 100 µM; TGI (SK-MEL-28 melanoma): > 100 µM

Question: Which results are given for `COc1ccc(C(=O)N(Cc2cccnc2)C(=S)N(Cc2cccnc2)C(=O)c2ccc(OC)cc2)cc1`?
Answer: TGI (786-0 renal): > 100 µM; TGI (A498 renal): > 100 µM; TGI (CAKI-1 renal): > 100 µM; TGI (HCT-15 colon): > 100 µM; TGI (HOP-92 NSCLC): > 100 µM; TGI (MDA-MB-435): > 100 µM; TGI (NCI-H522 lung): > 100 µM; TGI (OVCAR-3 ovarian): > 100 µM; TGI (SK-MEL-28 melanoma): > 100 µM

Question: How did the TGI (786-0 renal) turn out when `CS(=O)(=O)CCC(N)P(=O)(O)O` (stereo unspecified) was run?
Answer: Its TGI is greater than 100 µM.

Question: What about the TGI (CAKI-1 renal) of the same molecule?
Answer: The TGI was greater than 100 µM.

Question: What about the TGI (HCT-15 colon) of the same molecule?
Answer: Its TGI is greater than 100 µM.

Question: And the TGI (HOP-92 NSCLC)?
Answer: Its TGI is greater than 100 µM.

Question: What about the TGI (MDA-MB-435) of the same molecule?
Answer: The TGI was greater than 100 µM.

Question: What about the TGI (NCI-H522 lung) of the same molecule?
Answer: The TGI was greater than 100 µM.

Question: What about the TGI (OVCAR-3 ovarian) of the same molecule?
Answer: The TGI was greater than 100 µM.

Question: And the TGI (SK-MEL-28 melanoma)?
Answer: Its TGI is greater than 100 µM.
